Test results taken from the supplement of paper PMC10307832.

Legend:
Test in all cases: relative viability (nuclei count vs DMSO), 5 days (fraction); higher = more cells survive
[1] = compound: CCN(CCO)CCCC(C)Nc1ccnc2cc(Cl)ccc12 [Hydroxychloroquine] + CC(=O)Nc1cccc(-n2c(=O)n(C3CC3)c(=O)c3c(Nc4ccc(I)cc4F)n(C)c(=O)c(C)c32)c1 [Trametinib] (partner 0.02 µM)
Procedure, shortened: (§1)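 The day after seeding in 1536-well plates, lung cancer cell lines were treated by pin tool with a single drug, or with a fixed anchor-drug dose together with five library-drug doses (not always all listed) in √10 steps. After 5 days, a combined fix-and-stain solution (final 0.05% Triton X-100, 1% formaldehyde, 1 ug/ml Hoechst) was added. Nuclei counted on 4× images gave relative viability as treated counts over vehicle counts, reported as the median of duplicate plates.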

[2] = compound: CCN(CCO)CCCC(C)Nc1ccnc2cc(Cl)ccc12 [Hydroxychloroquine] + O=C(c1cc(Cc2n[nH]c(=O)c3ccccc23)ccc1F)N1CCN(C(=O)C2CC2)CC1 [Olaparib] (partner 8 µM)
Procedure, shortened: as §1

[3] = compound: CCN(CCO)CCCC(C)Nc1ccnc2cc(Cl)ccc12 [Hydroxychloroquine] + CS(=O)(=O)CCNCc1ccc(-c2ccc3ncnc(Nc4ccc(OCc5cccc(F)c5)c(Cl)c4)c3c2)o1 [Lapatinib] (partner 2 µM)
Procedure, shortened: as §1

[4] = compound: CCN(CCO)CCCC(C)Nc1ccnc2cc(Cl)ccc12 [Hydroxychloroquine] + N=C(N)NC(=N)NCCc1ccccc1 [Phenformin] (partner 250 µM)
Procedure, shortened: as §1

Cell Line	relative viability ([1]; first compound 0.5 µM)	relative viability ([1]; first compound 1.581 µM)	relative viability ([1]; first compound 5 µM)	relative viability ([1]; first compound 15.81 µM)	relative viability ([1]; first compound 50 µM)	relative viability ([2]; first compound 0.5 µM)	relative viability ([2]; first compound 1.581 µM)	relative viability ([2]; first compound 5 µM)	relative viability ([2]; first compound 15.81 µM)	relative viability ([2]; first compound 50 µM)	relative viability ([3]; first compound 0.5 µM)	relative viability ([3]; first compound 1.581 µM)	relative viability ([3]; first compound 5 µM)	relative viability ([3]; first compound 15.81 µM)	relative viability ([3]; first compound 50 µM)	relative viability ([4]; first compound 0.5 µM)	relative viability ([4]; first compound 1.581 µM)	relative viability ([4]; first compound 5 µM)	relative viability ([4]; first compound 15.81 µM)	relative viability ([4]; first compound 50 µM)
HARA	0.725	0.975	0.88	0.704	0.613	0.64	0.838	1.04	1.14	0.487	0.712	0.731	0.597	0.765	0.635	0.475	0.406	0.519	0.442	0.465
NCI-H2126	0.5	0.516	0.603	0.544	0.55	0.98	0.921	0.9	0.975	0.926	0.74	0.649	0.761	0.797	0.816	0.528	0.534	0.56	0.521	0.506
LXF-289	0.659	0.689	0.674	0.72	0.759	1.07	1.06	1.07	1.15	1.16	0.868	0.906	0.911	0.848	0.891	0.533	0.513	0.517	0.505	0.495
NCI-H520	0.692	0.658	0.589	0.628	0.844	0.344	0.354	0.304	0.337	0.364	0.934	0.898	0.857	0.958	0.978	0.539	0.403	0.649	0.683	0.628
NCI-H1395	1.09	0.972	0.862	1.02	0.949	0.46	0.467	0.471	0.512	0.423	1.25	1.09	0.907	0.877	0.955	0.465	0.445	0.451	0.456	0.43
NCI-H2170	0.867	0.852	0.933	1.05	0.896	0.647	0.568	0.679	0.528	0.734	0.261	0.251	0.275	0.276	0.267	0.427	0.413	0.435	0.427	0.417
NCI-H2009	0.308	0.247	0.328	0.272	0.259	0.672	0.72	0.7	0.698	0.695	0.909	0.826	0.874	0.898	0.893	0.502	0.475	0.491	0.486	0.469
